Laboratory results taken from US5032595A, “Method of stimulating steroidogenesis with alpidem” (FIDIA-Georgetown Institute for the Neurosciences, priority 1989, dated 1991).

Legend:
[1] = molecular target: T1, peripheral-type benzodiazepine receptor (PBR) in Y-1 cells (Mus musculus, UniProt P50637); assay: [3H]PK 11195 binding in Y-1 adrenocortical cells; conditions: 37° C., FIG. 2a
T1 construct: Y-1 cell cultures were scraped from the flasks; host or cells: Y-1 mouse adrenal tumor cells
Procedure: (§1) Cells--The Y-1 adrenal mouse tumor cell line used in these studies was obtained from the American Type Culture Collection (ATCC #CCL 79). Stock cultures were grown in modified Waymouth's MB752/l medium containing 20 mM HEPES, 1.2 g/l NaHCO3, 15% horse serum and 2.5% fetal calf serum, pH 7.4. Before use the cells were washed three times at 30 min intervals, with serum-free media in order to eliminate serum components that may interfere with the assays and were incubated for the indicated time periods in the presence of the drugs under investigation. Bovine fasciculata-reticularis and adrenocortical cells from adult (300 g) Sprague-Dawley rats were prepared as previously described by Yanagibashi et al, (1989) Endocrinology 124; 2838-2391.
Radioligand binding assays--Y-1 cell cultures were scraped from the flasks ([…]) in 5 ml of Kreb's buffer, dispersed by repetitive pipetting, and centrifuged at 1,200 × g for 5 min. The cell pellets were resuspended in Kreb's buffer and larger cellular aggregates were allowed to settle for 5 min. The finely dispersed cell suspensions were taken for further experimentation.
Binding assays were performed in a total volume of 250-400 ul of Kreb's buffer containing [^3 H]PK 11195 (0.07-20 nM) with 5 ug of cellular protein. Incubations were conducted at 37° C. for 30 min and bound radioligand was measured by filtration through Whatman GF/C filters followed by four rapid 5 ml washes with 25 mM Tris-HCl (pH 7.4) containing 1 uM PK 11195. Filters were subjected to liquid scintillation counting. Nonspecific binding was measured in the presence (of 10 uM nonradioactive PK 11195.

[2] = tested on: rat adrenocortical cells; assay: Corticosterone secretion in dissociated rat adrenocortical cells; type: cell-based; conditions: rat adrenocortical cell suspensions, FIG. 5a
Procedure: as §1
Measurement of steroid production--These experiments were performed with the Y-1 cells plated in 12--22 mm wells and incubated for the times shown at a final volume of 1 ml of serum-free media at 37° C. […] Steroid production was determined by measuring 20-γ-hydroxyprogesterone, the main steroid product of these cells, using a radioimmunoassay with an antibody donated by Dr. G. Nieswender (Univ. of Colorado, Fort Collins), under the process described in Kowal J. (1970), Recent Progress in Hormone Research 26, 623-687 and Schimmer B.P. (1981) in Functionally Differentiated Cell Lines, ed. […]

[3] = tested on: purified rat Leydig cells; assay: Testosterone production by purified rat Leydig cells, basal and hCG stimulated

T1 sequence (P50637 whole entry): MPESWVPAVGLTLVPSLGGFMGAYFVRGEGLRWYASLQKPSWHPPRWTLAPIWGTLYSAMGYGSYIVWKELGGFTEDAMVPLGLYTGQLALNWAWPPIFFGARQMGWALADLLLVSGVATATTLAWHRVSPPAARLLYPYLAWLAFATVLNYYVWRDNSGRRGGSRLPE

## CN1C(=O)CN=C(c2ccc(Cl)cc2)c2cc(Cl)ccc21 [Ro5-4864, 4'-chlorodiazepam]
[1]
  rank order of compound displacement potency against [3H]PK 11195 binding: alpidem>PK 11195>PK 14067>4'-chlorodiazepam>zolpidem>PK 14608, diazepam>flunitrazepam>clonazepam>flumazenil
[2]
  stimulation of steroid production (corticosterone), in words: much more potent at stimulating steroidogenesis in rat adrenocortical cells when compared with bovine preparations
[3]; compound 10^-5 M, basal, 4 hours at 32° C., mean ± S.D. n = 3, control 1.30 ± 0.20
  Testosterone, No Additions: 2.40 ± 0.30 ng/10^5 cel s/4 hours
[3]; compound 10^-5 M, hCG 50 ng/ml, 4 hours at 32° C., mean ± S.D. n = 3, control 15.13 ± 2.05
  Testosterone, hCG (50 ng/ml): 14.10 ± 2.26 ng/10^5 cel s/4 hours
[3]; purified rat Leydig cells, basal, 240 min
  stimulation of testosterone production: about 2 fold
